Source: PubChem BioAssay (NCI)
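Protocol summary: plate cells (96-well), add compound at 5 concentrations, incubate 48 h, interpolate endpoints linearly. TGI denotes the concentration required for complete inhibition of growth.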 Where a SMILES comes first, the peptide text is derived from it. The star is where a group is joined. Cbz = O=C(OCc1ccccc1)*

What was measured:
Assay in all cases: NCI-60 cell line screen, 48 h
A549 NSCLC = tested on: A549 NSCLC
SF-539 CNS = tested on: SF-539 CNS
T-47D breast = tested on: T-47D breast
NCI-H226 lung = tested on: NCI-H226 lung
PC-3 prostate = tested on: PC-3 prostate
MDA-N = tested on: MDA-N
HOP-92 NSCLC = tested on: HOP-92 NSCLC
UACC-62 melanoma = tested on: UACC-62 melanoma
ACHN renal = tested on: ACHN renal
UO-31 renal = tested on: UO-31 renal
BT-549 breast = tested on: BT-549 breast
HCT-15 colon = tested on: HCT-15 colon
HS 578T breast = tested on: HS 578T breast
CAKI-1 renal = tested on: CAKI-1 renal
HT29 colon = tested on: HT29 colon
SN12C renal = tested on: SN12C renal
LOX IMVI melanoma = tested on: LOX IMVI melanoma
CCRF-CEM leukemia = tested on: CCRF-CEM leukemia
A498 renal = tested on: A498 renal
SNB-75 CNS = tested on: SNB-75 CNS

| Compound | TGI (A549 NSCLC) [µM] | TGI (SF-539 CNS) [µM] | TGI (T-47D breast) [µM] | TGI (NCI-H226 lung) [µM] | TGI (PC-3 prostate) [µM] | TGI (MDA-N) [µM] | TGI (HOP-92 NSCLC) [µM] | TGI (UACC-62 melanoma) [µM] | TGI (ACHN renal) [µM] | TGI (UO-31 renal) [µM] | TGI (BT-549 breast) [µM] | TGI (HCT-15 colon) [µM] | TGI (HS 578T breast) [µM] | TGI (CAKI-1 renal) [µM] | TGI (HT29 colon) [µM] | TGI (SN12C renal) [µM] | TGI (LOX IMVI melanoma) [µM] | TGI (CCRF-CEM leukemia) [µM] | TGI (A498 renal) [µM] | TGI (SNB-75 CNS) [µM] |
| --- | --- | --- | --- | --- | --- | --- | --- | --- | --- | --- | --- | --- | --- | --- | --- | --- | --- | --- | --- | --- |
| CC(NC(=O)C(NC(=O)OCc1ccccc1)C(C)C)C(=O)NCC(=O)O (stereo not drawn) (Cbz-Val-Ala-Gly-OH; configuration not given here) | > 100 | > 100 | > 100 | > 100 | > 100 | > 100 | > 100 | > 100 | > 100 | > 100 | > 100 | > 100 | > 100 | > 100 | > 100 | > 100 |  |  |  |  |
| [N-]=[N+]=NCc1nc(N)c2c3c(sc2n1)CCCC3 | 36.6 | 3.46 | 63.3 | 5.97 | 6.72 | 13.9 | 1.77 | 23.6 | 14.1 | 0.227 |  | 11.4 | 14.9 | 8.32 | 3.15 | 10.2 | 2.13 | > 100 | 45 | 20.9 |
| COc1ccc(-c2cc3ccccc3oc2=O)cc1OC | > 100 | > 100 | > 100 | > 100 |  | > 100 | > 100 | > 100 | > 100 | > 100 | > 100 | > 100 | > 100 | > 100 | > 100 | > 100 | > 100 | > 100 | > 100 | > 100 |
| CC1=C(/C=C/C(C)=C/C=C/C(C)=C/C(=O)OC2CC(n3cc(F)c(=O)[nH]c3=O)OC2CO)C(C)(C)CCC1 (stereo unspecified) | 17.6 | 0.54 | 21.2 | 52.7 | 20.8 | 23.2 | 36.7 | 4.96 | 11.6 | 14.9 | 22.3 | 27.6 | > 56 | 16.9 | 21.5 | 32 | 20.6 | 31.8 |  | 18.6 |
| C=C(Nc1nc2ccc(C)cc2s1)C(=O)C(CC)C(=O)C(CC)CC1C(=O)NC(=O)NC1=O (stereo unspecified) | > 100 | > 100 |  | > 100 | > 100 | > 100 | > 100 | > 100 | > 100 | > 100 | > 100 | > 100 | > 100 | > 100 |  | > 100 | > 100 | > 100 |  | > 100 |
| CC(C)(C)OC/C=C(/CO)[C@@H]1C=C[C@H](O)C1 | > 100 | > 100 | > 100 | > 100 | > 100 | > 100 |  | > 100 | > 100 | > 100 | > 100 | > 100 |  | > 100 | > 100 | > 100 |  | > 100 | > 100 | > 100 |
| Cc1nc2ccc(F)cc2c2c1CCN2c1ccc(Cl)cc1 | > 100 | 24.3 |  | 72.2 | 22.7 | 21.7 |  | 39.1 | 96.2 | 78.3 | 67.2 | > 100 | 79.5 | 79.6 | 22.4 | 97.6 | 33 | 31 | 73.1 | > 100 |
| COCOC1C=CCCCC2=CC(C)=C(CC1)O2 (stereo unspecified) | > 100 | > 100 |  | > 100 | > 100 | > 100 | > 100 | > 100 | > 100 | > 100 | > 100 | > 100 | > 100 | > 100 | > 100 | > 100 | > 100 | > 100 | > 100 | > 100 |
| CC1CN=C(N(C(=O)Nc2ccccc2)c2ccc(Cl)c(Cl)c2)S1 (stereo unspecified) | > 100 | > 100 | > 100 |  | > 100 | > 10 | 52.3 |  | > 100 | > 100 |  | > 100 | > 100 | > 100 | 78 | 56.6 | 93.3 | > 10 | 64.9 | > 100 |
| CC1=C(CO)C2=C(C)C3(CC3)[C@@](C)(O)C(=O)C2=C1 | 1.64 | 0.371 | 2.48 | 0.528 | 1.31 | 3.25 | 0.639 |  | 1.52 |  |  | 5.17 | 1.51 | 0.76 | 1.12 | 5.21 | 3.14 | > 28.6 | 0.507 | 0.473 |
| CC1(C)OC[C@@H]([C@H](O)C2C=CC(=O)S2)O1 (stereo partly specified) | > 100 | > 100 |  | > 100 | > 100 | > 100 | 58.5 | 35.9 | 49.2 | 50 | 47.5 | 35.5 |  | 72.4 | 55.5 | > 100 | 31.7 | 97.9 | 51.1 | > 100 |
| CN1C(=O)C2CCCC(=O)N2c2cccnc21 (stereo unspecified) | > 100 | > 100 | > 100 | > 100 |  | > 100 |  | > 100 | > 100 | > 100 | > 100 | > 100 | > 100 | > 100 | > 100 | > 100 | > 100 | > 100 |  |  |
| COc1ccc(C[C@H]2COC(=O)[C@@H]2Cc2cccc(Br)c2)cc1OC | > 100 | 41.4 | > 100 | > 100 | 53.6 | 60.1 | 48.3 | > 100 | 84.9 | 82.3 | 61.2 | > 100 | > 100 | 30 | 60.8 | > 100 | 14.6 | 39.2 |  | 55.5 |
| COc1cccc(C2c3cc4c(cc3OC(C)(N3CCCC3)C2C)OCO4)c1 (stereo unspecified) | 32.1 | 37.2 | 64 | 27.3 | 62.2 | 4.02 | 42.2 | 23.6 | 82.3 | 39.9 |  | 44.2 | 19.9 | 59.8 | 15 | 48.6 | 25.1 | > 100 | 85.3 | 26.5 |
| CCOc1nnnc2nc[nH]c12 | > 100 | > 100 | > 100 | > 100 | > 100 | > 100 |  | > 100 |  | > 100 | > 100 | > 100 | > 100 | > 100 | > 100 | > 100 | > 100 |  | > 100 | > 100 |
| Cn1c2ccccc2c(=O)c2cccc(C(=O)NC(CS)C(=O)O)c21 (stereo unspecified) | > 100 | > 100 | > 100 | > 100 | > 100 | > 100 |  | > 100 | > 100 | > 100 | > 100 | > 100 | > 100 | > 100 | > 100 | > 100 | > 100 |  | > 100 | > 100 |
| COC1=C(Br)[C@H](O)[C@@]2(C=C1Br)CC(C(=O)NCCCOc1c(Br)cc(C(O)CNC(C)=O)cc1Br)=NO2 (stereo partly specified) | > 10 | > 10 | > 10 | > 10 | > 10 | 4.4 |  | > 10 | > 10 | > 10 | > 10 | > 10 | > 10 | > 10 | > 10 | > 10 | > 10 | > 10 | > 10 | > 10 |
| Cc1ccc(Cl)c2c(=O)c3ccc(N)cc3sc12 | 85.3 | 45.1 | 87.1 | 48.4 | 76.7 | > 100 |  | 30.8 | 57.5 | 41.2 | > 100 | 54.9 | 33.6 | > 100 | 38.5 | 32.9 |  | 50.4 | 36.8 | 37.8 |
| N#Cc1c(-c2ccc(Cl)cc2)c(C#N)c(=O)n(NS(=O)(=O)c2ccccc2)c1O | > 100 | 55.6 |  | > 100 | 48.8 | > 100 | 71.1 | 29.6 | > 100 |  | 32.8 | 62.3 | 63.9 | 48 | > 100 | > 100 | 30.7 | 88.6 | 70.1 | > 100 |
| CC(=O)N(C)CCc1c[nH]c2ccccc12 | > 100 | > 100 | > 100 | > 100 | > 100 | > 100 |  | > 100 | > 100 | > 100 | > 100 | > 100 | > 100 | > 100 | > 100 | > 100 | > 100 | > 100 |  | > 100 |
| CCOC(=O)c1sc2c(c1OC(=O)c1ccc(OC)cc1)c(=O)n(-c1ccccc1)c(=S)n2-c1ccccc1 | > 100 | > 100 | > 100 | 73 | > 100 | > 100 | 63.4 | > 100 | > 100 |  |  | > 100 | > 100 | > 100 | > 100 | > 100 | > 100 | > 100 | 41.4 | > 100 |
| Nc1ccn([C@H]2CO[C@@H](CO)[C@@H]2O)c(=O)n1 |  | > 100 | > 100 | > 100 | > 100 | > 100 | > 100 | > 100 | > 100 | > 100 | > 100 | > 100 |  | > 100 | > 100 | > 100 | > 100 | > 100 | > 100 | > 100 |
| O=C(NNC(=O)c1ccccc1O)c1cccc(Br)c1 | > 100 | > 100 | > 100 | > 100 | > 100 | > 100 |  | > 100 | > 100 | > 100 | > 100 | > 100 | > 100 | > 100 | > 100 | > 100 | > 100 |  | > 100 | > 100 |
| O=C(Cn1c(-c2ccccc2)cc2ccccc21)N1CCCC1 | > 100 |  | > 100 | > 100 | > 100 | > 100 | > 100 | > 100 | > 100 | > 100 | > 100 | > 100 | > 100 |  | > 100 | > 100 | > 100 |  |  | > 100 |
| O=c1oc2c/c(=C\c3ccc([N+](=O)[O-])cc3)c(=O)c3cccc1c3-2 | > 100 |  | > 100 |  | > 100 | > 100 | > 100 | > 100 | > 100 | > 100 | > 100 | > 100 | > 100 |  | > 100 | > 100 | > 100 | > 100 |  | 88.6 |
| CCOC(=O)[C@H](C)OC(=O)[C@@](C)(NC(=O)c1ccccc1C(=O)OC)[C@@H]1NC=C(C(=O)OC)CS1 | > 100 |  | > 100 | > 100 | > 100 | 64.6 |  | > 100 | > 100 | > 100 | > 100 | > 100 | > 100 | > 100 | > 100 | > 100 |  | 63.9 | > 100 | > 100 |
